According to the CheMixHub viscosity set:

Test: xn = mol fraction of the nth substance listed

O=C(O)c1cc(O)c(O)c(O)c1 + CC(C)=O
viscosity [mPa·s], 101 kPa
Conditions | 293.15 K | 298.15 K | 303.15 K | 308.15 K | 313.15 K
x1 = 0.0034 | 0.361 | 0.345 | 0.332 | 0.318 | 0.307
x1 = 0.0069 | 0.383 | 0.367 | 0.348 | 0.337 | 0.323
x1 = 0.01 | 0.401 | 0.388 | 0.368 | 0.352 | 0.338
x1 = 0.014 | 0.424 | 0.409 | 0.383 | 0.368 | 0.356

Oc1ccccc1Cl + CC(C)=O
101 kPa
Conditions | viscosity [mPa·s]
293.15 K, x1 = 0.09296 | 0.475
293.15 K, x1 = 0.1779 | 0.611
293.15 K, x1 = 0.3108 | 0.992
293.15 K, x1 = 0.4089 | 1.376
293.15 K, x1 = 0.5253 | 2.051
293.15 K, x1 = 0.6914 | 3.17
293.15 K, x1 = 0.8336 | 3.91
298.15 K, x1 = 0.101 | 0.442
298.15 K, x1 = 0.2004 | 0.644
298.15 K, x1 = 0.2997 | 0.857
298.15 K, x1 = 0.4006 | 1.217
298.15 K, x1 = 0.5 | 1.666
298.15 K, x1 = 0.5999 | 2.19
298.15 K, x1 = 0.6997 | 2.712
298.15 K, x1 = 0.7988 | 3.086
298.15 K, x1 = 0.9003 | 3.303
303.15 K, x1 = 0.09296 | 0.419
303.15 K, x1 = 0.1779 | 0.569
303.15 K, x1 = 0.3108 | 0.893
303.15 K, x1 = 0.4089 | 1.199
303.15 K, x1 = 0.5253 | 1.684
303.15 K, x1 = 0.6914 | 2.4
303.15 K, x1 = 0.8336 | 2.85
313.15 K, x1 = 0.09296 | 0.382
313.15 K, x1 = 0.1779 | 0.508
313.15 K, x1 = 0.3108 | 0.777
313.15 K, x1 = 0.4089 | 1.019
313.15 K, x1 = 0.5253 | 1.369
313.15 K, x1 = 0.6914 | 1.886
313.15 K, x1 = 0.8336 | 2.165
323.15 K, x1 = 0.09296 | 0.3515
323.15 K, x1 = 0.1779 | 0.465
323.15 K, x1 = 0.3108 | 0.687
323.15 K, x1 = 0.4089 | 0.893
323.15 K, x1 = 0.5253 | 1.154
323.15 K, x1 = 0.6914 | 1.527
323.15 K, x1 = 0.8336 | 1.735

Oc1ccccc1Cl + CC(C)CO
Conditions | viscosity [mPa·s]
303.15 K, 101 kPa, x1 = 0.3796 | 5.333

CC(C)c1ccccc1 + CC(C)O
viscosity [mPa·s], 101 kPa
Conditions | x2 = 0.1013 | x2 = 0.2013 | x2 = 0.2991 | x2 = 0.4002 | x2 = 0.4993 | x2 = 0.6002 | x2 = 0.7002 | x2 = 0.8006 | x2 = 0.9002
303.15 K | 0.6764 | 0.6831 | 0.7003 | 0.7299 | 0.7766 | 0.8482 | 0.9452 | 1.104 | 1.34
308.15 K | 0.6347 | 0.6402 | 0.6534 | 0.6776 | 0.7151 | 0.7732 | 0.8534 | 0.9869 | 1.183
313.15 K | 0.5971 | 0.599 | 0.6093 | 0.6291 | 0.6596 | 0.7081 | 0.7742 | 0.8854 | 1.046
318.15 K | 0.562 | 0.5619 | 0.5682 | 0.5853 | 0.611 | 0.6508 | 0.7041 | 0.7975 | 0.9303
323.15 K | 0.5287 | 0.5275 | 0.5322 | 0.5444 | 0.5654 | 0.5976 | 0.6419 | 0.7195 | 0.8272

CCCCOC(C)=O + CC(C)O
viscosity [mPa·s], 100 kPa
Conditions | x1 = 0.081 | x1 = 0.1599 | x1 = 0.24 | x1 = 0.35 | x1 = 0.44 | x1 = 0.5601 | x1 = 0.65 | x1 = 0.74 | x1 = 0.85 | x1 = 0.9397
293.15 K | 1.638 | 1.156 | 0.884 | 0.725 | 0.688 | 0.674 | 0.686 | 0.686 | 0.703 | 0.717
298.15 K | 1.439 | 1.038 | 0.812 | 0.684 | 0.652 | 0.648 | 0.652 | 0.652 | 0.665 | 0.673
303.15 K | 1.256 | 0.924 | 0.747 | 0.643 | 0.608 | 0.601 | 0.608 | 0.616 | 0.629 | 0.632
308.15 K | 1.119 | 0.847 | 0.687 | 0.592 | 0.56 | 0.557 | 0.564 | 0.564 | 0.582 | 0.584
313.15 K | 0.972 | 0.74 | 0.613 | 0.536 | 0.516 | 0.516 | 0.522 | 0.525 | 0.531 | 0.543
318.15 K | 0.862 | 0.658 | 0.538 | 0.482 | 0.469 | 0.474 | 0.481 | 0.487 | 0.496 | 0.502
323.15 K | 0.759 | 0.574 | 0.469 | 0.431 | 0.428 | 0.436 | 0.443 | 0.451 | 0.457 | 0.461

CCCCCCCC(=O)O + CC(C)[C@@H]1CC[C@@H](C)C[C@H]1O
viscosity [mPa·s]
Conditions | 293.15 K | 298 K | 298.15 K | 303.15 K | 308.15 K | 313.15 K | 318.15 K | 323.15 K
100 kPa, x1 = 0.4 | 19.83 | – | 15.29 | 12.01 | 9.58 | 7.8 | 6.43 | 5.37
101 kPa, x2 = 0.333 | – | 12 | – | – | – | – | – | –

CCCN + CCC(C)(C)O
Conditions | viscosity [mPa·s]
308.15 K, 101 kPa, x2 = 0.9498 | 2.305

CCCCOC(C)=O + CCC(C)=O
308 K, 101 kPa
Conditions | viscosity [mPa·s]
x1 = 0.0999 | 0.468
x1 = 0.2002 | 0.484
x1 = 0.3 | 0.52
x1 = 0.4 | 0.533
x1 = 0.4997 | 0.569
x1 = 0.5997 | 0.584
x1 = 0.7 | 0.606
x1 = 0.7997 | 0.642
x1 = 0.9004 | 0.669

Oc1ccccc1Cl + CCC(C)=O
298.15 K, 101 kPa
Conditions | viscosity [mPa·s]
x1 = 0.1005 | 0.517
x1 = 0.1961 | 0.7
x1 = 0.3003 | 0.913
x1 = 0.3994 | 1.322
x1 = 0.501 | 1.744
x1 = 0.6001 | 2.277
x1 = 0.6991 | 2.736
x1 = 0.8006 | 3.091
x1 = 0.8991 | 3.315
